Data on 1 molecule can be found in patent publication US9421175B2, “Prevention of retinopathy by inhibition of the visual cycle” (priority 2004, dated 2016).

Each structure is given as a SMILES string.

Holding throughout (type): in vivo, rat
The subject of data set [1] is Sprague-Dawley rats. Put plainly: Resistance to retinal ischemia 18 h after intraperitoneal isotretinoin (scotopic ERG 1 week later). The protocol:
Purpose: To evaluate the efficacy of isotretinoin in the prevention of retinal functional loss following 1 h ischemia induced by elevation of the intraocular pressure beginning 18 h after the intraperitoneal administration of isotretinoin.
(§1) Material and methods: Intraperitoneal isotretinoin 5 mg/kg in dimethyl sulfoxide (DMSO) was given to 6 Sprague-Dawley rats 18 h before intraocular pressure elevation during general anesthesia using cannulation of the anterior chamber in one eye and infusion of balanced saline solution at a pressure of 110 mmHg. The fellow eye was not subjected to ischemia. The animals were kept in ambient room light before and during ischemia. Retinal function was assessed 1 week later by scotopic and mesopic full-field electroretinography (ERG). The study adhered to the ARVO resolution on animal welfare.

The test system of data set [2] is rats. Put plainly: Retinal vessel diameter after intravitreal isotretinoin (digital fundus photography). The conditions noted are these: single intravitreal injection of isotretinoin 2.5 μg in 10 μl DMSO; 6 h later, dark adapted; 4 eyes; SD 4.2%; p=0.04 vs placebo. As for the experimental part: Purpose: To assess the effect of intravitreal isotretinoin on retinal vessel diameters in rats, the vein diameter acting as a marker of retinal flow and metabolism.
Methods: In 6 animals, one eye received a single intravitreal injection of isotretinoin 2.5 μg in 10 μl dimethyl sulfoxide (DMSO). The fellow eye received a placebo injection of 10 μl DMSO. Retinal vessel diameter was recorded 6 h later in both eyes after the rats had dark adapted using digital fundus photography in red illumination and assessed using computerized image analysis. All procedures were performed in general anesthesia and the study adhered to the ARVO resolution on animal welfare.

The subject of data set [3] is Sprague-Dawley rats. Put plainly: Resistance to retinal ischemia 1 h after intraperitoneal isotretinoin (scotopic ERG 1 week later). The conditions noted are these: isotretinoin 5 mg/kg i.p. in DMSO 1 h before 1 h ischemia (IOP 110 mmHg), 5 treated rats. As for the experimental part:
Purpose: To evaluate the efficacy of isotretinoin in the prevention of retinal functional loss following 1 h of ocular ischemia induced by elevation of the intraocular pressure beginning 1 h after the intraperitoneal administration of isotretinoin.
as §1, with “Of 12 Sprague-Dawley rats, 7 received intraperitoneal saline injection and 5 received intraperitoneal” for “Intraperitoneal”, “1” for “was given to 6 Sprague-Dawley rats 18”, “full anaesthesia” for “general anesthesia”

Data set [4] has as its system rats. Put plainly: Experimental retinal vein occlusion, blood-retina barrier permeability by vitreous fluorometry. The conditions noted are these: i.p. isotretinoin 5 mg/mild in DMSO for five days before examination, 14 days after photocoagulation; 7 rats; p<0.012. The protocol: Purpose: To assess the effect of isotretinoin on the integrity of the blood-retina barrier in experimental retinal vein occlusion. Material and methods: Occlusion of all retinal veins near the rim of the optic nerve head was induced by laser photocoagulation in 14 rats. Blood-retina barrier permeability was measured using vitreous fluorometry 2 weeks later. In 7 rats, intraperitoneal isotretinoin 5 mg/mild in dimethyl sulfoxide (DMSO) was administered for five days before the examination of vascular leakage 14 days after photocoagulation. The study adhered to the ARVO resolution on animal welfare.

On to `CC1=C(/C=C/C(C)=C/C=C/C(C)=C\C(=O)O)C(C)(C)CCC1` [isotretinoin, 13-cis-retinoic acid], for which the “eyes subjected to ischemia with normal scotopic ERG amplitudes” value in the data set with Sprague-Dawley rats [1] (isotretinoin 5 mg/kg i.p. in DMSO 18 h before 1 h ischemia (IOP 110 mmHg), ERG 1 week later, 6 treated rats) worked out at 6 eyes. Moreover, the “scotopic ERG amplitudes” value in the data set on Sprague-Dawley rats [1] (isotretinoin 5 mg/kg i.p. in DMSO 18 h before 1 h ischemia, eyes subjected to ischemia, 1 week after ischemia) was 60-120 μV. Further, the “change in retinal vein diameter” value in the data set with rats [2] is −9%. Moreover, in the data set with Sprague-Dawley rats [3], the “animals with flat ERG, of 5 eyes subjected to ischemia” value was determined as 2 animals and the “animals with intact scotopic ERG, of 5 eyes subjected to ischemia” value was 3 animals. The “retinal vascular leakage compared to untreated animals” value in the data set on rats [4] is recorded as “lower”.
